This passage reports EC50 results from ChEMBL document CHEMBL2163290, “Substituted pyrazolones require N2 hydrogen bond donating ability to protect against cytotoxicity from protein aggregation of mutant superoxide dismutase 1” (Bioorg Med Chem Lett, 2012).

The subject of the test is PC-12. Put plainly: Neuroprotective activity in rat PC12 cells expressing SOD1 G93A mutant assessed as increase in cell viability after 48 hrs by CalceinAM-based fluorescence assay. In kind it is functional. The following applies: PC-12, 48 h.

As usually defined, the EC50 is the midpoint of the concentration-response curve.

With `O=c1cc(COc2cc(Cl)cc(Cl)c2)[nH]n1CCO`, the concentration giving a half-maximal response (EC50) is above 32000 nM.

Regarding `O=c1cc(COc2cc(Cl)cc(Cl)c2)[nH]n1-c1ccc(Cl)cc1`, the EC50 is 1730 nM.

As to `O=c1cc(COc2cc(Cl)cc(Cl)c2)[nH]n1Cc1ccccc1`, the half-maximal effective concentration (EC50) is 130 nM.

As for `O=c1cc(COc2cc(Cl)cc(Cl)c2)[nH][nH]1`, the half-maximal effective concentration (EC50) was 67 nM.

Consider `O=c1cc(COc2cc(Cl)cc(Cl)c2)[nH]n1CCCO`, for which the EC50 was 340 nM.

Regarding `O=c1cc(COc2cc(Cl)cc(Cl)c2)[nH]n1-c1ccccc1`, the concentration for a half-maximal effect (EC50) is 1030 nM.

For the compound `N#CCC(=O)n1[nH]c(COc2cc(Cl)cc(Cl)c2)cc1=O`, the EC50 was 420 nM.

Regarding `O=C1N[C@H]2[C@H](CS[C@H]2CCCCC(=O)n2[nH]c(COc3cc(Cl)cc(Cl)c3)cc2=O)N1`, the EC50 was 560 nM.

Turning to `COc1ccc(Cn2[nH]c(COc3cc(Cl)cc(Cl)c3)cc2=O)cc1`, the EC50 was above 32000 nM.

As to `Nc1ccc(C(=O)n2[nH]c(COc3cc(Cl)cc(Cl)c3)cc2=O)cc1`, the EC50 is 930 nM.

For `O=C1C=C(COc2cc(Cl)cc(Cl)c2)CN1Cc1ccccc1`, the EC50 is above 32000 nM.

Take `O=c1cc(COc2cc(Cl)cc(Cl)c2)[nH]n1-c1c(Cl)cc(C(F)(F)F)cc1Cl`: the EC50 was above 32000 nM.

For the compound `Cn1[nH]c(COc2cc(Cl)cc(Cl)c2)cc1=O`, the EC50 was 670 nM.

Turning to `O=C(CCCC[C@@H]1SC[C@@H]2NC(=O)N[C@@H]21)NCCOCCOCCOCCOCCC(=O)n1[nH]c(COc2cc(Cl)cc(Cl)c2)cc1=O`, the EC50 was 670 nM.

On to `O=c1cc(COc2cc(Cl)cc(Cl)c2)[nH]n1-c1nc(-c2ccccc2)cs1`, for which the 50% effective concentration (EC50) is 1000 nM.

`O=C1CC(COc2cc(Cl)cc(Cl)c2)CN1Cc1ccccc1` (stereo not given): the half-maximal effective concentration (EC50) is above 32000 nM.

Take `CC(=O)n1[nH]c(COc2cc(Cl)cc(Cl)c2)cc1=O`: the half-maximal effective concentration (EC50) is 270 nM.

For the compound `O=c1cc(COc2cc(Cl)cc(Cl)c2)[nH]n1-c1ccc([N+](=O)[O-])cc1[N+](=O)[O-]`, the EC50 was above 32000 nM.

With `O=C(c1cccnc1)n1[nH]c(COc2cc(Cl)cc(Cl)c2)cc1=O`, the EC50 was 1320 nM.

For `Cc1nnsc1C(=O)n1[nH]c(COc2cc(Cl)cc(Cl)c2)cc1=O`, the EC50 was 1710 nM.

As to `Cn1c(COc2cc(Cl)cc(Cl)c2)cc(=O)n1C`, the EC50 was above 32000 nM.

For `O=C(c1cccs1)n1[nH]c(COc2cc(Cl)cc(Cl)c2)cc1=O`, the EC50 is 310 nM.

As for `O=C(c1ccc(N=C=S)cc1)n1[nH]c(COc2cc(Cl)cc(Cl)c2)cc1=O`, the concentration for a half-maximal effect (EC50) is 330 nM.

Take `O=c1cc(COc2cc(Cl)cc(Cl)c2)[nH]n1Cc1cccc(O)c1`: the EC50 is 360 nM.

Consider `O=Cn1[nH]c(COc2cc(Cl)cc(Cl)c2)cc1=O`, for which the EC50 was 490 nM.
